We go through 19 compounds from US12685735B2 (Foghorn Therapeutics Inc., priority 2020, dated 2026).

Structures are written as SMILES.

For one test, the target named is BRM (Homo sapiens, UniProt P51531). Put plainly: ATPase catalytic activity assay of BRM (ADP-Glo). The class given is biochemical. The settings on record: for IC50: read-out: BRM IC50 (μM)*. In outline: (§1)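 Measurement is luminescence, reflecting ADP produced by ATPase turnover. The two-step ADP-Glo detection consists of ATP depletion for 40 min and ADP-to-ATP conversion with luciferase for 60 min, both at room temperature.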
Chain of BRM (P51531 whole entry): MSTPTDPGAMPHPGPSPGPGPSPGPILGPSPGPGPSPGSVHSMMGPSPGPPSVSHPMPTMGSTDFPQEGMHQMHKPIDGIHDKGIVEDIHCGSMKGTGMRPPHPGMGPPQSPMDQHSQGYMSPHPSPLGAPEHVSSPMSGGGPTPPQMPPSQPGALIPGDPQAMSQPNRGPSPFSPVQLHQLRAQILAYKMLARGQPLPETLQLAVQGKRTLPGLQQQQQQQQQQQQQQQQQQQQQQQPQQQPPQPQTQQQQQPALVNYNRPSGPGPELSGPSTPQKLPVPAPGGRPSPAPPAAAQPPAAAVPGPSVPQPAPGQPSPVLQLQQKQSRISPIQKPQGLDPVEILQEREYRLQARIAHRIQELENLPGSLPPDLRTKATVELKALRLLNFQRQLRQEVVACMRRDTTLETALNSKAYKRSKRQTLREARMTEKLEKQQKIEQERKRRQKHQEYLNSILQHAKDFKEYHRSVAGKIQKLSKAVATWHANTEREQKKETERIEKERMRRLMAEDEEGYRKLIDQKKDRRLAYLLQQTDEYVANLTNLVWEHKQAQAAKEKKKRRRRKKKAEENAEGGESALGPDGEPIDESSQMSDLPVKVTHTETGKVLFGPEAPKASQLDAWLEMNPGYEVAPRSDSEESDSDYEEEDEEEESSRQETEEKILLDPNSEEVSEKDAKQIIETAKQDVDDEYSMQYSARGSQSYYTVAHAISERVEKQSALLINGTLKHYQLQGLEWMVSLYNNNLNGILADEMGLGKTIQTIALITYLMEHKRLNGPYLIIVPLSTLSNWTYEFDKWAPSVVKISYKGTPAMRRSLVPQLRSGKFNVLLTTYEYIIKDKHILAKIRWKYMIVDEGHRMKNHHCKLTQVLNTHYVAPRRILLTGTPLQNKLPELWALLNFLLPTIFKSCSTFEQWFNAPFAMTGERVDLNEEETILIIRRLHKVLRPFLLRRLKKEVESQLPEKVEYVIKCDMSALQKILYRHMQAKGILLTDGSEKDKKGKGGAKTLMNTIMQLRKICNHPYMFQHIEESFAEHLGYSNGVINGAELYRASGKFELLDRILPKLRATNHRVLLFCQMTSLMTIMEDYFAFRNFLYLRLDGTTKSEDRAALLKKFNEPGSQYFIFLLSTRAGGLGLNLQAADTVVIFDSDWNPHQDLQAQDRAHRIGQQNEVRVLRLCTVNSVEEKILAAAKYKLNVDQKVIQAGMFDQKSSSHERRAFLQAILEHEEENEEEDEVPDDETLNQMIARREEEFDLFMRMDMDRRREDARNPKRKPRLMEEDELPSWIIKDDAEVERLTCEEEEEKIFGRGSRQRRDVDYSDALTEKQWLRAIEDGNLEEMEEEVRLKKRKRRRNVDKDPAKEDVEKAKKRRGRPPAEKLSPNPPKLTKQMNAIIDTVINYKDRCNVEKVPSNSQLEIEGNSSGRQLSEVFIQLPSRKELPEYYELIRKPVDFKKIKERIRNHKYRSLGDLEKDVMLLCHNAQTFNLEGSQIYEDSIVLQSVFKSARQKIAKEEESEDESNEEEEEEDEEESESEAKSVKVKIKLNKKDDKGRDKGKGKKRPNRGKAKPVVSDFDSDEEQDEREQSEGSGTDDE

The target of another test is BRG-1 (Homo sapiens, UniProt P51532). Put plainly: ATPase catalytic activity assay of BRG-1 (ADP-Glo). The class given is biochemical. The settings on record: ATPase catalytic activity, ADP-Glo; for IC50: read-out: BRG1 IC50 (μM)*; for Emax: read-out: BRG1 Max % Inhibition. The procedure, abridged:
as §1
(ADP-Glo turns the ADP formed in a reaction into a luminescent signal.)

Chain of BRG-1 (P51532 whole entry): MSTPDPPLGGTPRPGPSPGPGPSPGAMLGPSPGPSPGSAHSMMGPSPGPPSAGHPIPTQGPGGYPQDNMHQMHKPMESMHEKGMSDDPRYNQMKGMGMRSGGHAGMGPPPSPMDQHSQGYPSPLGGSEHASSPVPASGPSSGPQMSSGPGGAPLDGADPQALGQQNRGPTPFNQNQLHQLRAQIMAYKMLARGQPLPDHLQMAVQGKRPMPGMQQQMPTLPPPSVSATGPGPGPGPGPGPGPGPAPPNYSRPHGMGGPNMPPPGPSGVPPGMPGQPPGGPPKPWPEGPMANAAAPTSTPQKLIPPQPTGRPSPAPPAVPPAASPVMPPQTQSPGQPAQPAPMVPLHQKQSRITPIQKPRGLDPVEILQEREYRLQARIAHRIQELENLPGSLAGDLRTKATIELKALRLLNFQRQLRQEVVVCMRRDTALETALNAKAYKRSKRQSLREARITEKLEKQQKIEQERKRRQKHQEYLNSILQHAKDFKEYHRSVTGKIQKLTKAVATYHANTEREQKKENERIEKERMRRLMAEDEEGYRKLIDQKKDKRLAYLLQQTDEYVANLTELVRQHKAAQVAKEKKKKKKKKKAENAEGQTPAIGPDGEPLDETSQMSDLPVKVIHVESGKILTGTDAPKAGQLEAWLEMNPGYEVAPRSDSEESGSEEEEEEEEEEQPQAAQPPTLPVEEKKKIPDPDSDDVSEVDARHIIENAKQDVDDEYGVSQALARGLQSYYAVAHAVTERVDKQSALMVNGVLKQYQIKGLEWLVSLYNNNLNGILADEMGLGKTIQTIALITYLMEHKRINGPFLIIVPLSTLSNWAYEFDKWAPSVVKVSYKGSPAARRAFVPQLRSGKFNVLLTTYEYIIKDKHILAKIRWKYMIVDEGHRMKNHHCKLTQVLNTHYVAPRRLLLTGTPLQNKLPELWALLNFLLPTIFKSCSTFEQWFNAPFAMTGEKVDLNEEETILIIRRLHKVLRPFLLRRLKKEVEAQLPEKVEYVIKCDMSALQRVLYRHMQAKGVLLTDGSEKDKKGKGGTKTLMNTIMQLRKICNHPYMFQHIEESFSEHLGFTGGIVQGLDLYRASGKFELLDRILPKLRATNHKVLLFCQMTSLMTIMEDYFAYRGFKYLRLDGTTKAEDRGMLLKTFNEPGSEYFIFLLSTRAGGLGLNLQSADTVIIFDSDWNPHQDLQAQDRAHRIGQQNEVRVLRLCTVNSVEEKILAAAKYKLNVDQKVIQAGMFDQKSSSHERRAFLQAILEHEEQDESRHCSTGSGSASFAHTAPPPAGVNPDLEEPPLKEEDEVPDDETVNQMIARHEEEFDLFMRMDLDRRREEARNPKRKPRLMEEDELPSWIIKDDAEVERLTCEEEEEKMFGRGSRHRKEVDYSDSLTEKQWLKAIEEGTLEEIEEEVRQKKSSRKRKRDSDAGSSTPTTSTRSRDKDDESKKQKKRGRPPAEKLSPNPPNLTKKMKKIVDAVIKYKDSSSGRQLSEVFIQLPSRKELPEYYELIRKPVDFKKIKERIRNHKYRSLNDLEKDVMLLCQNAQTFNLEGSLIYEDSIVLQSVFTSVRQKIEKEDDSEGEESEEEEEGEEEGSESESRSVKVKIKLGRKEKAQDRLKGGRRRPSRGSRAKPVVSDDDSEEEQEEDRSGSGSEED

What is called IC50 is the point on the concentration scale where inhibition reaches its midpoint. Regarding `C[C@@H]1CN(c2cccc(-c3csc(NC(=O)CNC(=O)c4ccc5c(c4)[C@@](C)(C#N)COC5)n3)c2)C[C@H](C)O1` [Compound 171, (S)-4-cyano-N-(2-((4-(3-((cis)-2,6-dimethylmorpholino)phenyl)thiazol-2-yl)amino)-2-oxoethyl)-4-methylisochroman-6-carboxamide], on BRM, the “BRM Max % Inhibition” value is reported as above 80% and the IC50 fell in the range of 0.1 to 1 µM. Besides, on BRG-1, the IC50 lay within 1 to 5 µM and the Emax was above 70%.

On to `C[C@@H]1CN(c2cccc(-c3csc(NC(=O)CNC(=O)c4ccc5c(c4)[C@](C)(C#N)CCO5)n3)c2)C[C@H](C)O1` [Compound 172, (4R)-4-cyano-N-[2-[[4-[3-[(cis)-2,6-dimethylmorpholin-4-yl]phenyl]thiazol-2-yl]amino]-2-oxo-ethyl]-4-methyl-chromane-6-carboxamide], for which, at BRM, the “BRM Max % Inhibition” value was above 95% and the IC50 is below 0.1 µM. Moreover, on BRG-1, the IC50 was below 0.1 µM and the Emax is above 95%.

On to `CN1CCOc2ccc(-c3csc(NC(=O)CNC(=O)c4ccc5c(c4)[C@](C)(CO)CC5)n3)cc21` [Compound 173, (R)-3-(hydroxymethyl)-3-methyl-N-(2-((4-(4-methyl-3,4-dihydro-2H-benzo[b][1,4]oxazin-6-yl)thiazol-2-yl)amino)-2-oxoethyl)-2,3-dihydro-1H-indene-5-carboxamide], for which, at BRM, the “BRM Max % Inhibition” value is above 95% and the IC50 was 0.1 to 1 µM. On BRG-1, the IC50 is 0.1 to 1 µM and the Emax was above 80%.

For the compound `CN1CCOc2ccc(-c3csc(NC(=O)CNC(=O)c4ccc5c(c4)[C@@](C)(CO)CC5)n3)cc21` [Compound 174, (S)-3-(hydroxymethyl)-3-methyl-N-(2-((4-(4-methyl-3,4-dihydro-2H-benzo[b][1,4]oxazin-6-yl)thiazol-2-yl)amino)-2-oxoethyl)-2,3-dihydro-1H-indene-5-carboxamide], on BRM, the “BRM Max % Inhibition” value is above 80% and the IC50 fell in the range of 0.1 to 1 µM. Also, on BRG-1, the IC50 was 1 to 5 µM and the Emax is above 50%.

For the compound `Cn1cnc2ccc(-c3csc(NC(=O)CNC(=O)c4ccc5c(c4)[C@](C)(CO)CC5)n3)cc21` [Compound 175, (R)-3-(hydroxymethyl)-3-methyl-N-(2-((4-(1-methyl-1H-benzo[d]imidazol-6-yl)thiazol-2-yl)amino)-2-oxoethyl)-2,3-dihydro-1H-indene-5-carboxamide], on BRM, the “BRM Max % Inhibition” value is listed as above 90% and the IC50 is 0.1 to 1 µM. In addition, at BRG-1, the IC50 was 1 to 5 µM and the Emax was above 60%.

Turning to `Cn1ccc2ccc(-c3csc(NC(=O)CNC(=O)c4ccc5c(c4)[C@](C)(CO)CC5)n3)cc2c1=O` [Compound 177, (R)-3-(hydroxymethyl)-3-methyl-N-(2-((4-(2-methyl-1-oxo-1,2-dihydroisoquinolin-7-yl)thiazol-2-yl)amino)-2-oxoethyl)-2,3-dihydro-1H-indene-5-carboxamide], on BRM, the “BRM Max % Inhibition” value was above 95% and the IC50 is below 0.1 µM. For the same compound, at BRG-1, the IC50 was 0.1 to 1 µM and the Emax is above 90%.

`Cn1ncc2ccc(-c3csc(NC(=O)CNC(=O)c4ccc5c(c4)[C@](C)(CO)CC5)n3)cc21` [Compound 179, (R)-3-(hydroxymethyl)-3-methyl-N-(2-((4-(1-methyl-1H-indazol-6-yl)thiazol-2-yl)amino)-2-oxoethyl)-2,3-dihydro-1H-indene-5-carboxamide]: at BRM, the “BRM Max % Inhibition” value was above 80% and the IC50 lay within 0.1 to 1 µM. Further, at BRG-1, the IC50 is above 5 µM and the Emax was above 50%.

As to `CN1C(=O)CCc2ccc(-c3csc(NC(=O)CNC(=O)c4ccc5c(c4)[C@](C)(CO)CC5)n3)cc21` [Compound 180, (R)-3-(hydroxymethyl)-3-methyl-N-(2-((4-(1-methyl-2-oxo-1,2,3,4-tetrahydroquinolin-7-yl)thiazol-2-yl)amino)-2-oxoethyl)-2,3-dihydro-1H-indene-5-carboxamide], at BRM, the “BRM Max % Inhibition” value was above 90% and the IC50 fell in the range of 0.1 to 1 µM. Moreover, on BRG-1, the IC50 fell in the range of 1 to 5 µM and the Emax was above 60%.

In the case of `Cn1ccc2ccc(-c3csc(NC(=O)CNC(=O)c4ccc5c(c4)[C@@](C)(CO)CC5)n3)cc2c1=O` [Compound 181, (S)-3-(hydroxymethyl)-3-methyl-N-(2-((4-(2-methyl-1-oxo-1,2-dihydroisoquinolin-7-yl)thiazol-2-yl)amino)-2-oxoethyl)-2,3-dihydro-1H-indene-5-carboxamide], at BRM, the “BRM Max % Inhibition” value is above 90% and the IC50 lay within 0.1 to 1 µM. Also, on BRG-1, the IC50 was 1 to 5 µM and the Emax was above 70%.

Regarding `C[C@@H]1CN(c2cccc(-c3csc(NC(=O)CNC(=O)c4cccc(C5(CO)CC5)c4)n3)n2)C[C@H](C)O1` [Compound 182, N-[2-[[4-[6-[(cis)-2,6-dimethylmorpholin-4-yl]-2-pyridyl]thiazol-2-yl]amino]-2-oxo-ethyl]-3-[1-(hydroxymethyl)cyclopropyl]benzamide], on BRM, the “BRM Max % Inhibition” value is given as above 95% and the IC50 was below 0.1 µM. On BRG-1, the IC50 lay within 0.1 to 1 µM and the Emax was above 90%.

On to `C[C@@H]1CN(c2cccc(-c3csc(NC(=O)CNC(=O)c4cccc(C5(F)COC5)c4)n3)c2)C[C@H](C)O1` [Compound 183, N-(2-((4-(3-((cis)-2,6-dimethylmorpholino)phenyl)thiazol-2-yl)amino)-2-oxoethyl)-3-(3-fluorooxetan-3-yl)benzamide], for which, on BRM, the “BRM Max % Inhibition” value is reported as above 90% and the IC50 is 0.1 to 1 µM. For the same compound, on BRG-1, the IC50 was in the range of 1 to 5 µM and the Emax is above 70%.

As for `C[C@@H]1CN(c2cccc(-c3csc(NC(=O)CNC(=O)c4cccc(C5(O)COC5)c4)n3)c2)C[C@H](C)O1` [Compound 184, N-(2-((4-(3-((2R,6S)-2,6-dimethylmorpholino)phenyl)thiazol-2-yl)amino)-2-oxoethyl)-3-(3-hydroxyoxetan-3-yl)benzamide], at BRM, the “BRM Max % Inhibition” value is given as above 90% and the IC50 was in the range of 0.1 to 1 µM. Also, at BRG-1, the IC50 is 1 to 5 µM and the Emax was above 80%.

With `Cn1ncc(-c2cccc(-c3csc(NC(=O)CNC(=O)c4cccc(C(C)(C)CO)c4)n3)c2)n1` [Compound 185, 3-(1-hydroxy-2-methylpropan-2-yl)-N-(2-((4-(3-(2-methyl-2H-1,2,3-triazol-4-yl)phenyl)thiazol-2-yl)amino)-2-oxoethyl)benzamide], at BRM, the “BRM Max % Inhibition” value is on record as above 95% and the IC50 lay in the range of 0.1 to 1 µM. Further, at BRG-1, the IC50 is 1 to 5 µM and the Emax is above 80%.

`C[C@@H]1CN(c2cccc(-c3csc(NC(=O)CNC(=O)c4ccc5c(c4)[C@@]4(CCC[C@@H]4O)CC5)n3)c2)C[C@H](C)O1` [Compound 186, (1R,2S)-N-(2-((4-(3-((cis)-2,6-dimethylmorpholino)phenyl)thiazol-2-yl)amino)-2-oxoethyl)-2-hydroxy-2′,3′-dihydrospiro[cyclopentane-1,1′-indene]-6′-carboxamide]: on BRM, the “BRM Max % Inhibition” value is reported as above 95% and the IC50 was below 0.1 µM. On BRG-1, the IC50 was 1 to 5 µM and the Emax is above 70%.

With `C[C@@H]1CN(c2cccc(-c3csc(NC(=O)CNC(=O)c4cccc(C5(C)COC5)c4)n3)n2)C[C@H](C)O1` [Compound 187, N-[2-[[4-[6-[(cis)-2,6-dimethylmorpholin-4-yl]-2-pyridyl]thiazol-2-yl]amino]-2-oxo-ethyl]-3-(3-methyloxetan-3-yl)benzamide], on BRM, the “BRM Max % Inhibition” value was above 95% and the IC50 was below 0.1 µM. For the same compound, at BRG-1, the IC50 was in the range of 0.1 to 1 µM and the Emax is above 70%.

Turning to `C[C@@H]1CN(c2cccc(-c3csc(NC(=O)CNC(=O)c4ccc5c(c4)[C@@]4(CCC[C@H]4O)CC5)n3)c2)C[C@H](C)O1` [Compound 188, (1R,2R)-N-(2-((4-(3-((cis)-2,6-dimethylmorpholino)phenyl)thiazol-2-yl)amino)-2-oxoethyl)-2-hydroxy-2′,3′-dihydrospiro[cyclopentane-1,1′-indene]-6′-carboxamide], on BRM, the “BRM Max % Inhibition” value was above 90% and the IC50 is 0.1 to 1 µM. At BRG-1, the IC50 fell in the range of 1 to 5 µM and the Emax was above 50%.

With `C[C@@H]1CN(c2cccc(-c3csc(NC(=O)CNC(=O)c4ccc5c(c4)[C@]4(CCC[C@@H]4O)CC5)n3)c2)C[C@H](C)O1` [Compound 189, (1S,2S)-N-(2-((4-(3-((cis)-2,6-dimethylmorpholino)phenyl)thiazol-2-yl)amino)-2-oxoethyl)-2-hydroxy-2′,3′-dihydrospiro[cyclopentane-1,1′-indene]-6′-carboxamide], on BRM, the “BRM Max % Inhibition” value was above 90% and the IC50 fell in the range of 0.1 to 1 µM. Besides, on BRG-1, the IC50 is 1 to 5 µM and the Emax was above 50%.

Take `Cc1cnc(O)c(-c2cccc(-c3csc(NC(=O)CNC(=O)c4ccc5c(c4)[C@@](C)(CO)CC5)n3)n2)c1` [Compound 190, (S)-N-(2-((4-(2′-hydroxy-5′-methyl-[2,3′-bipyridin]-6-yl)thiazol-2-yl)amino)-2-oxoethyl)-3-(hydroxymethyl)-3-methyl-2,3-dihydro-1H-indene-5-carboxamide]: on BRM, the “BRM Max % Inhibition” value is above 90% and the IC50 fell in the range of 0.1 to 1 µM. Further, on BRG-1, the IC50 lay within 0.1 to 1 µM and the Emax was above 70%.

Regarding `C[C@]1(CO)CCc2ccc(C(=O)NCC(=O)Nc3nc(-c4cccc(-c5cccnc5O)n4)cs3)cc21` [Compound 191, (S)-N-(2-((4-(2′-hydroxy-[2,3′-bipyridin]-6-yl)thiazol-2-yl)amino)-2-oxoethyl)-3-(hydroxymethyl)-3-methyl-2,3-dihydro-1H-indene-5-carboxamide], at BRM, the “BRM Max % Inhibition” value was above 90% and the IC50 is 0.1 to 1 µM. On BRG-1, the IC50 was in the range of 0.1 to 1 µM and the Emax is above 80%.
